Results on 15 compounds are retold here after patent publication US7875715B2, “Compounds for the treatment of multi-drug resistant bacterial infections” (AstraZeneca AB, priority 2005, dated 2011).

Data set [1] addresses DNA gyrase (Escherichia coli, UniProt P0AES4+P0AES6). Put plainly: Supercoiling assay: inhibition of Escherichia coli DNA supercoiling activity. Format: biochemical. The procedure:
Compounds were tested for inhibition of Escherichia coli DNA supercoiling activity as follows. Assays were performed in polypropylene multiwell plates in 50 μl reactions containing 35 mM Tris-HCl (pH 7.5), 24 mM KCl, 4 mM MgCl2, 2 mM dithiothreitol, 1.8 mM spermidine, 5% (v/v) glycerol, 200 nM bovine serum albumin, 1.25% (v/v) DMSO, 3 mM ATP, 10 ng/ml relaxed pBR322 plasmid, 0.6 nM DNA gyrase, and test compound. Reactions were quenched after 1 hour by the addition of 10 μl of 30% (w/v) Ficoll-400, 10 mM EDTA, and 5% sodium dodecyl sulfate. Twenty-five μl of each sample was loaded onto a 0.8% (w/v) agarose gel and electrophoresed. The gel and gel buffer contained 1×TBE buffer (89 mM Tris base, 89 mM boric acid, and 2 mM EDTA at pH 8.3). After electrophoresis for 3 hours at 70V, the gel was stained with ethidium bromide and visualized by excitation with ultraviolet light. The fluorescence intensity of the most supercoiled plasmid band was used to measure gyrase activity. Compound potency was based IC50 measurements determined from reactions performed with eight 2-fold serial dilutions of each compound and a control without compound.

The subject of data set [2] is Escherichia coli. As to the kind of experiment: Bacterial susceptibility testing in liquid media (MIC), E. coli. It counts as cell-based. Conditions: lowest concentration reducing growth by 80% or more, 37° C., 24 hours. The procedure: (§1) Compounds were tested for antimicrobial activity by susceptibility testing in liquid media in a 96 well format. Compounds were dissolved in dimethylsulfoxide and tested in 10 doubling dilutions in the susceptibility assays. The organisms used in the assay were grown overnight on suitable agar media and then suspended in a liquid medium appropriate for the growth of the organism. The suspension was a 0.5 McFarland and a further 1 in 10 dilution was made into the same liquid medium to prepare the final organism suspension in 100 μL. Plates were incubated under appropriate conditions at 37° C. for 24 hours prior to reading. The Minimum Inhibitory Concentration (MIC) was determined as the lowest drug concentration able to reduce growth by 80% or more.
(§2) Compounds were evaluated against a panel of Gram-positive species, including Staphylococcus aureus, Streptococcus pneumoniae, Streptococcus pyogenes, and Enterococcus faecium. In addition, compounds were evaluated against a panel of Gram-negative species including Haemophilus influenzae, Escherichia coli and Moraxella catarrhalis.

Data set [3] concerns Streptococcus pneumoniae. As to the kind of experiment: Bacterial susceptibility testing in liquid media (MIC), S. pneumo. It counts as cell-based. Conditions: MIC: lowest concentration reducing growth by 80% or more; 37° C., 24 hours. The procedure: as §1, §2
In data set [4] the target is GyrB ATPase (Escherichia coli, UniProt P0AES4+P0AES6). Put plainly: ATPase assay: inhibition of GyrB ATPase activity, ammonium molybdate/malachite green phosphate detection. It counts as biochemical, E. coli. The procedure: Compounds were tested for inhibition of GyrB ATPase activity using an ammonium molybdate/malachite green-based phosphate detection assay (Lanzetta, P. A., L. J. Alvarez, P. S. Reinach, and O. A. Candia, 1979, 100: 95-97). Assays were performed in multiwell plates in 100 μl reactions containing: 50 mM TRIS buffer pH 7.5, 75 mM ammonium acetate, 5.5 mM magnesium chloride, 0.5 mM ethylenediaminetetraacetic acid, 5% glycerol, 1 mM 1,4-dithio-DL-threitol, 200 nM bovine serum albumin, 16 μg/ml sheared salmon sperm DNA, 4 nM E. coli GyrA, 4 nM E. coli GyrB, 250 μM ATP, and compound in dimethylsulfoxide. Reactions were quenched with 150 μL of ammonium molybdate/malachite green detection reagent containing 1.2 mM malachite green hydrochloride, 8.5 mM ammonium molybdate tetrahydrate, and 1 M hydrochloric acid. Plates were read in an absorbance plate reader at 625 nm and percent inhibition values were calculated using dimethylsulfoxide (2%)-containing reactions as 0% inhibition and novobiocin-containing (2 μM) reactions as 100% inhibition controls. Compound potency was based on IC50 measurements determined from reactions performed in the presence of 10 different compound concentrations.
Chain of GyrB ATPase (P0AES4 whole entry, one chain of several): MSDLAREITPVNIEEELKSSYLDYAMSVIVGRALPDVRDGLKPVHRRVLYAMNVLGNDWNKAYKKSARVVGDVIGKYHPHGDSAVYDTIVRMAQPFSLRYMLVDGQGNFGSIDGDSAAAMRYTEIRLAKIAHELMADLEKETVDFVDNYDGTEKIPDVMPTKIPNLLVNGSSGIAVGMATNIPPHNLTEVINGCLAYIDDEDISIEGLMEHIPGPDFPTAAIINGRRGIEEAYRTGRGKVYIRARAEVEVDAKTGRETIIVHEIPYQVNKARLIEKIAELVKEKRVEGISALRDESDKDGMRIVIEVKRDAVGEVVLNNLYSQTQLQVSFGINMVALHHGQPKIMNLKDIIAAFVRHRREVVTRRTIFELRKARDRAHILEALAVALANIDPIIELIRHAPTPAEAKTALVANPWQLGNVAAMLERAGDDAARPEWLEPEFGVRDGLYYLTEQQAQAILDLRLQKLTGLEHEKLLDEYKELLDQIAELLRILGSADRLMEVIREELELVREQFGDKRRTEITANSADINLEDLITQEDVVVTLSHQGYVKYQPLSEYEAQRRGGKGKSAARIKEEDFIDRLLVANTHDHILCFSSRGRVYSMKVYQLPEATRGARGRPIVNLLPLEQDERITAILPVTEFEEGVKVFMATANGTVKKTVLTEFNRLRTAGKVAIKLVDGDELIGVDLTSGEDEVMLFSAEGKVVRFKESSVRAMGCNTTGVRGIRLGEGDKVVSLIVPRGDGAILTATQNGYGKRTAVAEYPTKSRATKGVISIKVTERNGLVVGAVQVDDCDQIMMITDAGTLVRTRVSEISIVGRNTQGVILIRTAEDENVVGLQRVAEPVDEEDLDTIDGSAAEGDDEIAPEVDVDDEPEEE

Setting [5] is: 4 nM E. coli GyrA, 4 nM E. coli GyrB, 250 μM ATP, read-out: gyrase ATPase (converted).

Structures are written as SMILES. ≈ marks a conversion by molar mass, not a printed value. Structures can show the parent of a compound that is named as a salt. Where two headings read alike, the source gives them in different places.

Chain of DNA gyrase (P0AES4 whole entry, one chain of several): as above

On to `N#Cc1ccc2ccc(=O)n(CCN3CCC(NCc4cc5c(cn4)OCCO5)CC3)c2c1` [Example 5, 1-(2-{4-[(2,3-Dihydro[1,4]dioxino[2,3-c]pyridin-7-ylmethyl)amino]piperidin-1-yl}ethyl)-2-oxo-1,2-dihydroquinoline-7-carbonitrile], for which the IC50 in data set [1] (0.6 nM DNA gyrase, relaxed pBR322 plasmid, 1 hour, read-out: gyrase supercoiling (converted)) is 114 nM; in data set [4] (setting [5]) it was 157 nM. Moreover, in data set [2], the minimal inhibitory concentration (MIC) was 0.5 µg/mL (≈ 1.12 µM). Also, the S. pneumo in data set [3] is on record as 0.12 microgram/ml.

`O=C1COc2ccc(CNC3CCN(CCn4c(=O)ccc5ccc(F)c(F)c54)CC3)nc2N1` (as salt: salt) [Example 7, 6-[({1-[2-(7,8-Difluoro-2-oxoquinolin-1(2H)-yl)ethyl]piperidin-4-yl}amino)methyl]-2H-pyrido[3,2-b][1,4]oxazin-3(4H)-one] came in with a melting point of 158 to 170 °C.

Take `O=c1ccc2ccc(F)cc2n1CCN1CCC(NCc2cc3c(cn2)OCCO3)CC1` (as salt: HCl) [Example 10, 1-(2-{4-[(2,3-Dihydro[1,4]dioxino[2,3-c]pyridin-7-ylmethyl)amino]piperidin-1-yl}ethyl)-7-fluoroquinolin-2(1H)-one]: the melting point is > 275 °C (dec.).

Regarding `COC(=O)c1cc2ccc(OC)cc2n1CCN1CCC(NCc2cc3c(cn2)OCCO3)CC1` [Example 3, Methyl 1-(2-{4-[(2,3-dihydro[1,4]dioxino[2,3-c]pyridin-7-ylmethyl)amino]piperidin-1-yl}ethyl)-6-methoxy-1H-indole-2-carboxylate], the melting point turned out to be 130 °C.

In the case of `O=C1COc2ccc(CNC3CCN(CCn4c(=O)ccc5c(F)cc(F)cc54)CC3)nc2N1` (as salt: salt) [Example 8, 6-[({1-[2-(5,7-Difluoro-2-oxoquinolin-1(2H)-yl)ethyl]piperidin-4-yl}amino)methyl]-2H-pyrido[3,2-b][1,4]oxazin-3(4H)-one], the melting point was 170 to 180 °C.

As to `O=C1COc2ccc(CNC3CCN(CCn4c(=O)ccc5ccc(F)cc54)CC3)nc2N1` (as salt: salt) [Example 9, 6-[({1-[2-(7-Fluoro-2-oxoquinolin-1(2H)-yl)ethyl]piperidin-4-yl}amino)methyl]-2H-pyrido[3,2-b][1,4]oxazin-3(4H)-one], the melting point was in the range of 150 to 155 °C.

Regarding `O=C(O)[C@@H]1CN(CCn2c(=O)ccc3c(F)cc(F)cc32)CC[C@H]1NCc1cc2c(cn1)OCCO2` (as salt: hydrochloride) [Example 16, (3R,4R)-1-[2-(5,7-Difluoro-2-oxoquinolin-1(2H)-yl)ethyl]-4-[(2,3-dihydro[1,4]dioxino[2,3-c]pyridin-7-ylmethyl)amino]piperidine-3-carboxylic acid], the melting point is more than 190 °C.

`O=C1COc2ccccc2N1CCN1CCC(NCc2cc3c(cn2)OCCO3)CC1` [Example 49, 4-(2-{4-[(2,3-Dihydro[1,4]dioxino[2,3-c]pyridin-7-ylmethyl)amino]piperidin-1-yl}ethyl)-2H-1,4-benzoxazin-3(4H)-one] had an IC50 in data set [1] of 7070 nM. Besides, 8 µg/mL (≈ 18.8 µM) was the least that counted as inhibitory in data set [2] (MIC). In data set [3], the S. pneumo stood at 4 microgram/ml.

Consider `O=C(O)[C@@H]1CN(CCn2c(=O)ccc3c(F)cc(F)cc32)CC[C@H]1NC/C=C/c1cc(F)ccc1F` (as salt: hydrochloride) [Example 17, (3R,4R)-1-[2-(5,7-Difluoro-2-oxoquinolin-1(2H)-yl)ethyl]-4-{[(2E)-3-(2,5-difluorophenyl)prop-2-en-1-yl]amino}piperidine-3-carboxylic acid], for which the melting point is more than 205 °C.

As to `N#Cc1ccc2ccc(=O)n(CCN3CCC(NCc4ccc5c(n4)NC(=O)CO5)CC3)c2c1` [Example 6, 2-Oxo-1-[2-(4-{[(3-oxo-3,4-dihydro-2H-pyrido[3,2-b][1,4]oxazin-6-yl)methyl]amino}piperidin-1-yl)ethyl]-1,2-dihydroquinoline-7-carbonitrile], the melting point was determined as 212 °C.

On to `Cn1c(=O)c2ccc(F)cc2n(CCN2CCC(NCc3ccc4c(n3)NC(=O)CO4)CC2)c1=O` [Example 66, 7-Fluoro-3-methyl-1-[2-(4-{[(3-oxo-3,4-dihydro-2H-pyrido[3,2-b][1,4]oxazin-6-yl)methyl]amino}piperidin-1-yl)ethyl]quinazoline-2,4(1H,3H)-dione], for which, in data set [2], the minimal inhibitory concentration (MIC) amounted to 4 µg/mL (≈ 8.29 µM). In addition, in data set [3], the S. pneumo is 8 microgram/ml. Also, the IC50 in data set [4] (setting [5]) was 622 nM.

`COc1ccc2c(=O)ccn(CCN3CCC(NCc4cc5c(cn4)OCCO5)CC3)c2c1` (as salt: hydrochloride) [Example 2, 1-(2-{4-[(2,3-Dihydro[1,4]dioxino[2,3-c]pyridin-7-ylmethyl)amino]piperidin-1-yl}ethyl)-7-methoxyquinolin-4(1H)-one] displayed a melting point of 260 °C.

Compound `O=C(O)[C@H]1CN(CCn2c(=O)ccc3c(F)cc(F)cc32)CC[C@H]1NC/C=C/c1cc(F)ccc1F` (as salt: hydrochloride) [Example 13, (3S,4R)-1-[2-(5,7-Difluoro-2-oxoquinolin-1(2H)-yl)ethyl]-4-{[(2E)-3-(2,5-difluorophenyl)prop-2-en-1-yl]amino}piperidine-3-carboxylic acid] returned a melting point of 150 to 180 °C.

`N#Cc1ccc2c(c1)N(CCN1CCC(NC/C=C/c3cc(F)ccc3F)CC1)C(=O)CO2` [Example 37, 4-[2-(4-{[(2E)-3-(2,5-Difluorophenyl)prop-2-en-1-yl]amino}piperidin-1-yl)ethyl]-3-oxo-3,4-dihydro-2H-1,4-benzoxazine-6-carbonitrile] had an MIC in data set [2] of 0.25 µg/mL (≈ 0.552 µM). The S. pneumo in data set [3] turned out to be 0.06 microgram/ml. For the same compound, the IC50 in data set [4] was 17.7 nM.

`O=C1COc2ccc(F)cc2N1CCN1CCC(NCc2cc3c(cn2)OCCO3)CC1` [Example 26, 4-(2-{4-[(2,3-Dihydro[1,4]dioxino[2,3-c]pyridin-7-ylmethyl)amino]piperidin-1-yl}ethyl)-6-fluoro-2H-1,4-benzoxazin-3(4H)-one] had an IC50 in data set [1] of 949 nM. The compound further displayed an MIC in data set [2] of 1 µg/mL (≈ 2.26 µM). In data set [3], this compound gave a S. pneumo of 0.25 microgram/ml.

For orientation: MIC means the least concentration at which growth counts as inhibited. One may read the melting point as the temperature, or range, at which the solid turns liquid.
